{
  "source": "patent US20230293526A1",
  "about": "“METHOD FOR TREATING CANCER WITH A REVERSE TRANSCRIPTASE INHIBITOR” (PrimeFour Therapeutics, Inc., priority 2020, published 2023)",
  "experiment_in_all_cases": "Cell proliferation CellTiterGlo Ex.2",
  "format_in_all_cases": "cell-based",
  "key": {"RERF-LC-MS": {"test_system": "RERF-LC-MS", "conditions": "RERF-LC-MS (Lung), 72 h", "method": "(§1) A dose response relationship on cell proliferation was assessed for Compound 13 on 140 tumor cell lines. Briefly, compound treatment of cells started one day after seeding with a final DMSO concentration of 0.100, and was performed by nanodrop-dispensing using a Tecan Dispenser. 0.10% DMSO (solvent) and Staurosporine (10 μM) served as high control (10000 viability) and low control (000 viability), respectively. Compound 13 was tested at 10, 3, 1, 0.3, 0.1, 0.03, 0.01, and 0.003 μM.\n(§2) Cells were cultured in the appropriate media. For the assays, cells were seeded in white cell culture-treated flat and clear bottom multiwell plates and incubated at 37° C. overnight before compound was added. After incubation for 72 h at 37° C. at 5% or 10% CO2 dependent on the medium, cell plates were equilibrated to room temperature for one hour, CellTiterGlo reagent (Promega) was added and luminescence was measured approximately an hour later using a luminometer.\n(§3) Raw data were converted into percent cell viability relative to the high and low control, which were set to 10000 and 000, respectively."}, "SK-N-FI": {"test_system": "SK-N-FI", "conditions": "Homo sapiens; SK-N-FI (Brain), 72 h", "method": "as §1, §2, §3"}, "NCI-H838": {"test_system": "NCI-H838", "conditions": "Homo sapiens; NCI-H838 (Lung), 72 h", "method": "as §1, §2, §3"}, "Saos-2 EC": {"test_system": "Saos-2 EC", "conditions": "Homo sapiens; Saos-2 EC (Bone), 72 h", "method": "as §1, §2, §3"}, "SK-BR-3": {"test_system": "SK-BR-3", "conditions": "Homo sapiens; SK-BR-3 (Breast), 72 h", "method": "as §1, §2, §3"}, "KG-1": {"test_system": "KG-1", "conditions": "Homo sapiens; KG-1 (Blood), 72 h", "method": "as §1, §2, §3"}, "SNU-16": {"test_system": "SNU-16", "conditions": "Homo sapiens; SNU-16 (Stomach), 72 h", "method": "as §1, §2, §3"}, "SW620": {"test_system": "SW620", "conditions": "Homo sapiens, SW-620; SW620 (Colon), 72 h", "method": "as §1, §2, §3"}, "DV90": {"test_system": "DV90", "conditions": "Homo sapiens, DV-90; DV90 (Lung), 72 h", "method": "as §1, §2, §3"}, "HCC202": {"test_system": "HCC202", "conditions": "HCC202 (Breast), 72 h", "method": "as §1, §2, §3"}, "COR-L279": {"test_system": "COR-L279", "conditions": "Homo sapiens; COR-L279 (Lung), 72 h", "method": "as §1, §2, §3"}, "MOLM-13": {"test_system": "MOLM-13", "conditions": "Homo sapiens; MOLM-13 (Blood), 72 h", "method": "as §1, §2, §3"}, "HCT-15": {"test_system": "HCT-15", "conditions": "Homo sapiens; HCT-15 (Colon), 72 h", "method": "as §1, §2, §3"}, "SNU-1": {"test_system": "SNU-1", "conditions": "Homo sapiens, SNU1; SNU-1 (Stomach), 72 h", "method": "as §1, §2, §3"}, "Caki-2": {"test_system": "Caki-2", "conditions": "Homo sapiens; Caki-2 (Kidney), 72 h", "method": "as §1, §2, §3"}, "T84": {"test_system": "T84", "conditions": "Homo sapiens; T84 (Colon), 72 h", "method": "as §1, §2, §3"}, "LN229": {"test_system": "LN229", "conditions": "Homo sapiens, LN-229; LN229 (Brain), 72 h", "method": "as §1, §2, §3"}, "OV56": {"test_system": "OV56", "conditions": "OV56 (Ovary), 72 h", "method": "as §1, §2, §3"}, "PC-9": {"test_system": "PC-9", "conditions": "Homo sapiens; PC-9 (Lung), 72 h", "method": "as §1, §2, §3"}, "NCI-H82": {"test_system": "NCI-H82", "conditions": "Homo sapiens; NCI-H82 (Lung), 72 h", "method": "as §1, §2, §3"}, "MKN-45": {"test_system": "MKN-45", "conditions": "Homo sapiens; MKN-45 (Stomach), 72 h", "method": "as §1, §2, §3"}, "SK-N-SH": {"test_system": "SK-N-SH", "conditions": "Homo sapiens; SK-N-SH (Brain), 72 h", "method": "as §1, §2, §3"}, "HT-29": {"test_system": "HT-29", "conditions": "Homo sapiens; HT-29 (Colon), 72 h", "method": "as §1, §2, §3"}, "SU-DHL-5": {"test_system": "SU-DHL-5", "conditions": "Homo sapiens; SU-DHL-5 (Blood), 72 h", "method": "as §1, §2, §3"}, "SNU-216": {"test_system": "SNU-216", "conditions": "SNU-216 (Stomach), 72 h", "method": "as §1, §2, §3"}, "NCI-H2110": {"test_system": "NCI-H2110", "conditions": "NCI-H2110 (Lung), 72 h", "method": "as §1, §2, §3"}, "KG-1 a": {"test_system": "KG-1 a", "conditions": "Homo sapiens; KG-1 a (Blood), 72 h", "method": "as §1, §2, §3"}, "Colo 205": {"test_system": "Colo 205", "conditions": "Homo sapiens; Colo 205 (Colon), 72 h", "method": "as §1, §2, §3"}, "PANC-1": {"test_system": "PANC-1", "conditions": "Homo sapiens; PANC-1 (Pancreas), 72 h", "method": "as §1, §2, §3"}, "K562": {"test_system": "K562", "conditions": "Homo sapiens; K562 (Blood), 72 h", "method": "as §1, §2, §3"}, "HuH7": {"test_system": "HuH7", "conditions": "Homo sapiens, Huh-7; HuH7 (Liver), 72 h", "method": "as §1, §2, §3"}, "LnCap": {"test_system": "LnCap", "conditions": "Homo sapiens; LnCap (Prostate), 72 h", "method": "as §1, §2, §3"}, "MKN-1": {"test_system": "MKN-1", "conditions": "Homo sapiens; MKN-1 (Stomach), 72 h", "method": "as §1, §2, §3"}, "H2228": {"test_system": "H2228", "conditions": "Homo sapiens, NCI-H2228; H2228 (Lung), 72 h", "method": "as §1, §2, §3"}},
  "data": [
    {"compound": "C#C[C@]1(CO)O[C@@H](n2cnc3c(=O)[nH]c(N)nc32)C[C@@H]1O", "note": "[compound 13]", "values": [
      {"measurement": "IC50", "setting": "RERF-LC-MS", "value": "> 10", "unit": "µM"},
      {"measurement": "IC50", "setting": "SK-N-FI", "value": "> 10", "unit": "µM"},
      {"measurement": "IC50", "setting": "NCI-H838", "value": "> 10", "unit": "µM"},
      {"measurement": "IC50", "setting": "Saos-2 EC", "value": 3.99, "unit": "µM"},
      {"measurement": "IC50", "setting": "SK-BR-3", "value": "> 10", "unit": "µM"},
      {"measurement": "IC50", "setting": "KG-1", "value": "> 10", "unit": "µM"},
      {"measurement": "IC50", "setting": "SNU-16", "value": 1.95, "unit": "µM"},
      {"measurement": "IC50", "setting": "SW620", "value": 7.21, "unit": "µM"},
      {"measurement": "IC50", "setting": "DV90", "value": 1.59, "unit": "µM"},
      {"measurement": "IC50", "setting": "HCC202", "value": "> 10", "unit": "µM"},
      {"measurement": "IC50", "setting": "COR-L279", "value": "> 10", "unit": "µM"},
      {"measurement": "IC50", "setting": "MOLM-13", "value": 0.46, "unit": "µM"},
      {"measurement": "IC50", "setting": "HCT-15", "value": "> 10", "unit": "µM"},
      {"measurement": "IC50", "setting": "SNU-1", "value": 2.89, "unit": "µM"},
      {"measurement": "IC50", "setting": "Caki-2", "value": "> 10", "unit": "µM"},
      {"measurement": "IC50", "setting": "T84", "value": "> 10", "unit": "µM"},
      {"measurement": "IC50", "setting": "LN229", "value": 2.23, "unit": "µM"},
      {"measurement": "IC50", "setting": "OV56", "value": 1.99, "unit": "µM"},
      {"measurement": "IC50", "setting": "PC-9", "value": "> 10", "unit": "µM"},
      {"measurement": "IC50", "setting": "NCI-H82", "value": 6.46, "unit": "µM"},
      {"measurement": "IC50", "setting": "MKN-45", "value": "> 10", "unit": "µM"},
      {"measurement": "IC50", "setting": "SK-N-SH", "value": 6.47, "unit": "µM"},
      {"measurement": "IC50", "setting": "HT-29", "value": "> 10", "unit": "µM"},
      {"measurement": "IC50", "setting": "SU-DHL-5", "value": 3.74, "unit": "µM"},
      {"measurement": "IC50", "setting": "SNU-216", "value": 1.74, "unit": "µM"},
      {"measurement": "IC50", "setting": "NCI-H2110", "value": 3.41, "unit": "µM"},
      {"measurement": "IC50", "setting": "KG-1 a", "value": 5.86, "unit": "µM"},
      {"measurement": "IC50", "setting": "Colo 205", "value": 1.5, "unit": "µM"},
      {"measurement": "IC50", "setting": "PANC-1", "value": "> 10", "unit": "µM"},
      {"measurement": "IC50", "setting": "K562", "value": "> 10", "unit": "µM"},
      {"measurement": "IC50", "setting": "HuH7", "value": 1.24, "unit": "µM"},
      {"measurement": "IC50", "setting": "LnCap", "value": "> 10", "unit": "µM"},
      {"measurement": "IC50", "setting": "MKN-1", "value": 8.76, "unit": "µM"},
      {"measurement": "IC50", "setting": "H2228", "value": "> 10", "unit": "µM"}
    ]}
  ]
}
